Assay results taken from patent US20150246024A1 (priority 2012, published 2015).
In brackets after ≈: the same amount, converted by molar mass. Entries after “also recorded” stand apart in the source; their conditions may differ. Read-outs that look alike come from different tables or passages of the source.

Columns and labels:
[1] = tested on: LTA production in S. aureus; assay: Inhibition of LTA synthesis in S. aureus (immunoblot); settings: sub-lethal concentrations of compound
S. aureus - MRSA USA300 = assay: microbe, parasite or virus in culture; type: cell-based
[2] = biological target: Recombinant S. aureus LtaSSA expressed in E. coli (Staphylococcus aureus, UniProt Q2G093); type: cell-based
Sequence of Recombinant S. aureus LtaSSA expressed in E. coli (Q2G093 whole entry): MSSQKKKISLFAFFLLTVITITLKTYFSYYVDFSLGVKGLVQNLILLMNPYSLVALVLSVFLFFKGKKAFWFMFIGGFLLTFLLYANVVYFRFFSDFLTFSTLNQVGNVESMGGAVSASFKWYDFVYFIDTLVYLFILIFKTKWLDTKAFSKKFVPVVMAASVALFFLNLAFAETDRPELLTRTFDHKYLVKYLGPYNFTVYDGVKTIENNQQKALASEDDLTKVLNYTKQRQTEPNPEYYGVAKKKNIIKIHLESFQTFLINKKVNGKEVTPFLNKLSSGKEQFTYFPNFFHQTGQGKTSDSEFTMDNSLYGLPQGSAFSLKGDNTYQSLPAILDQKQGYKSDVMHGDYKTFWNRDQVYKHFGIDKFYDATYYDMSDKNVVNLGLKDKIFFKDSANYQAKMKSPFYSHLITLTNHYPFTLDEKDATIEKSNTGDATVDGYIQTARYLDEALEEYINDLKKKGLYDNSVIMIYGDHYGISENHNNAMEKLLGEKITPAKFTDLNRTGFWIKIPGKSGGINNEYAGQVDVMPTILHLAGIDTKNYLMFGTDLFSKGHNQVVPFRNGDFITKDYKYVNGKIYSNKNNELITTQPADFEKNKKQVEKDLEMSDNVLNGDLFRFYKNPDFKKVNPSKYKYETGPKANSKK

B. anthracis Sterne = assay: microbe, parasite or virus in culture; type: cell-based
E. faecium - VRE TX0016 = assay: microbe, parasite or virus in culture; type: cell-based
S. aureus RN4220 (MSSA) = assay: microbe, parasite or virus in culture; type: cell-based
S. aureus RN4220 [3] = assay: Growth of S. aureus culture with sub-lethal compound (OD600); settings: 1 μM compound, until control culture OD600 1.0
E. faecalis - VRE V583 = assay: microbe, parasite or virus in culture; type: cell-based
S. aureus RN4220 [4] = assay: High throughput screen for growth inhibitors, 384-well; type: cell-based; settings: Staphylococcus aureus, positive control, vs medium alone
Experimental: The antibiotic sensitive strain S. aureus RN4220 was used to screen for small molecule growth inhibitors in a high throughput-screening assay using 384-well microplates. Cation-adjusted Hinton Mueller II broth supplemented with 0.005% Tween-80 was inoculated with a single colony of S. aureus RN4220. Following overnight incubation, the culture was diluted 1:100 in fresh medium and incubation was continued until the bacterial suspension reached an optical density at 600 nm (OD600) of 0.6 corresponding to a bacterial titer of 5×10^8 colony forming units (CFU) per ml. An aliquot of this culture was diluted 1:400 with fresh medium and stored on ice until it could be dispensed in 384-well plates. Small-scale experiments were conducted to determine the Z′-factor (1-[(3SD^−)+(3SD^+)/(Ave^−)−(Ave^+)]) used commonly for quality assessment of raw data sets generated in high-throughput screening. In this formula, (SD^+/−) and (Ave^+/−) represent standard deviation and average of positive and negative controls. […] The OD600 in each well was recorded after 20 hours incubation. […] After 20 hours, the OD600 was measured using a plate reader in absorbance mode. […]
S. aureus lacking the ltaS gene is unable to grow at temperatures […]. […] The quality of the screen was assessed for every assay plate with the Z′-factor, a measure for data variability within the dynamic range of the assay (Zhang et al. 1999). […]

[5] = 37° C., 18-22 hours, OD600, sigmoidal fit, read-out: IC50

SMILES | IC50 (B. anthracis Sterne; Bacillus anthracis) | MIC (B. anthracis Sterne; Bacillus anthracis) | IC50 (S. aureus RN4220 (MSSA); Staphylococcus aureus, MSSA) | MIC (S. aureus RN4220 (MSSA); Staphylococcus aureus, MSSA) | also measured
COc1cccc(-c2nnc(NC(=O)c3ccc(S(=O)(=O)N(Cc4ccccc4)C(C)C)cc3)o2)c1 [4-(N-benzyl-N-isopropylsulfamoyl)-N-(5-(3-methoxyphenyl)-1,3,4-oxadiazol-2-yl)benzamide] | 1 µM | 1.6 µM (≈ 0.811 µg/mL) | 1.2 µM | 3.1 µM (≈ 1.57 µg/mL) | LTA production (immunoblot α-LTA) [1]: affect the production of LTA; also recorded: reduced; IC50 (S. aureus - MRSA USA300; Staphylococcus aureus): 1300 nM; MIC (S. aureus - MRSA USA300; Staphylococcus aureus): 3.1 µM (≈ 1.57 µg/mL); production of LTA promoted by plasmid encoded LtaSSA [2]: abrogated; IC50 (E. faecium - VRE TX0016; Enterococcus faecium, VRE): 7.3 µM; MIC (E. faecium - VRE TX0016; Enterococcus faecium, VRE): 50 µM (≈ 25.3 µg/mL); reduced growth of staphylococci (S. aureus RN4220 [3]): 75%; IC50 (E. faecalis - VRE V583; Enterococcus faecalis, VRE): 18.5 µM; MIC (E. faecalis - VRE V583; Enterococcus faecalis, VRE): 50 µM (≈ 25.3 µg/mL)
COc1cc(OC)cc(-c2nnc(NC(=O)c3ccc(S(=O)(=O)N(C)c4ccccc4)cc3)o2)c1 [Compound 1650-I01, N-(5-(3,5-dimethoxyphenyl)-1,3,4-oxadiazol-2-yl)-4-(N-methyl-N-henylsulfamoyl)benzamide] |  |  |  |  | LTA production (immunoblot α-LTA) [1]: affect the production of LTA; also recorded: reduced; MIC (S. aureus - MRSA USA300; 37° C., 18-22 hours, OD600): 6.2 µM (≈ 3.07 µg/mL); IC50 (S. aureus - MRSA USA300; [5]): 1700 nM; production of LTA promoted by plasmid encoded LtaSSA [2]: abrogated; MIC (B. anthracis Sterne; 37° C., 18-22 hours, OD600): 3.1 µM (≈ 1.53 µg/mL); IC50 (B. anthracis Sterne; [5]): 1.5 µM; MIC (E. faecium - VRE TX0016; 37° C., 18-22 hours, OD600): 100.0 µM (≈ 49.5 µg/mL); IC50 (E. faecium - VRE TX0016; [5]): 14.6 µM; MIC (S. aureus RN4220 (MSSA); 37° C., 18-22 hours, OD600): 3.1 µM (≈ 1.53 µg/mL); IC50 (S. aureus RN4220 (MSSA); [5]): 1.3 µM; reduced growth of staphylococci (S. aureus RN4220 [3]): 50%; MIC (E. faecalis - VRE V583; 37° C., 18-22 hours, OD600): 100.0 µM (≈ 49.5 µg/mL); IC50 (E. faecalis - VRE V583; [5]): 55.6 µM
CC1CCCCN1S(=O)(=O)c1ccc(C(=O)Nc2nnc(-c3cccs3)o2)cc1 (stereo not shown) [Compound 1650-M01, 4-(2-methylpiperidin-1-ylsulfonyl)-N-(5-(thiophen-2-yl)-1,3,4-oxadiazol-2-yl)benzamide] | 11.1 µM | 25 µM (≈ 10.8 µg/mL) | 7.1 µM | 25 µM (≈ 10.8 µg/mL) | MIC (S. aureus - MRSA USA300; 37° C., 18-22 hours, OD600): 25.0 µM (≈ 10.8 µg/mL); IC50 (S. aureus - MRSA USA300; Staphylococcus aureus): 8400 nM; MIC (S. aureus - MRSA USA300; Staphylococcus aureus): 25 µM (≈ 10.8 µg/mL); production of LTA promoted by plasmid encoded LtaSSA [2]: abrogated; IC50 (E. faecium - VRE TX0016; Enterococcus faecium, VRE): 19.4 µM; MIC (E. faecium - VRE TX0016; Enterococcus faecium, VRE): 100 µM (≈ 43.3 µg/mL); IC50 (E. faecalis - VRE V583; Enterococcus faecalis, VRE): 36.7 µM; MIC (E. faecalis - VRE V583; Enterococcus faecalis, VRE): 100 µM (≈ 43.3 µg/mL)
CC(=O)COC(=O)Cc1coc2ccc3ccccc3c12 [Compound 1771-1, 2-oxopropyl 2-(naphtho[2,1-b]furan-1-yl)acetate] | 169 µM | > 400 µM | > 400 µM | > 400 µM | 
CNC(=O)COC(=O)Cc1coc2ccc3ccccc3c12 [Compound 1771-2, 2-(methylamino)-2-oxoethyl 2-(naphtho[2,1-b]furan-1-yl)acetate] | > 400 µM | > 400 µM | > 400 µM | > 400 µM | 
CC(NC(=O)COC(=O)Cc1coc2ccc3ccccc3c12)c1ccccc1 (stereo not shown) [Compound 1771-3, 2-oxo-2-(1-phenylethylamino)ethyl 2-(naphtho[2,1-b]furan-1-yl)acetate] | > 400 µM | > 400 µM | > 400 µM | > 400 µM | 
O=C(COC(=O)Cc1ccccc1)Nc1nnc(-c2ccccc2)o1 [Compound 1771-4, 2-oxo-2-(5-phenyl-1,3,4-oxadiazol-2-ylamino)ethyl 2-phenylacetate] | 224 µM | > 400 µM | 242 µM | > 400 µM | 
O=C(COC(=O)Cc1c[nH]c2ccccc12)Nc1nnc(-c2ccccc2)o1 [Compound 1771-5, 2-oxo-2-(5-phenyl-1,3,4-oxadiazol-2-ylamino)ethyl 2-(1H-indol-3-yl)acetate] | 88.1 µM | 200 µM (≈ 75.3 µg/mL) | 85.6 µM | > 400 µM | 
Cc1cc2occ(CC(=O)OCC(=O)Nc3nnc(-c4ccccc4)o3)c2cc1C [Compound 1771-6, 2-oxo-2-(5-phenyl-1,3,4-oxadiazol-2-ylamino)ethyl 2-(5,6-dimethylbenzofuran-3-yl)acetate] | 14.8 µM | 25 µM (≈ 10.1 µg/mL) | 15.2 µM | 50 µM (≈ 20.3 µg/mL) | 
O=C(COC(=O)Cc1coc2cc3c(cc12)CCC3)Nc1nnc(-c2ccccc2)o1 [Compound 1771-7, 2-oxo-2-(5-phenyl-1,3,4-oxadiazol-2-ylamino)ethyl 2-(6,7-dihydro-5H-indeno[5,6-b]furan-3-yl)acetate] | 24.1 µM | 50 µM (≈ 20.9 µg/mL) | 27.7 µM | 50 µM (≈ 20.9 µg/mL) | 
O=C(N[C@H](CO)[C@H](O)c1ccc([N+](=O)[O-])cc1)C(Cl)Cl [chloramphenicol] |  |  |  |  | inhibition at 80 µM (S. aureus RN4220 [4]): 100%
